Legend:
caspase 9 = experiment: Caspase 9 level by flow cytometry in HeLa cells; format: cell-based, human; settings: 5-10-25 μM, 48 h
Procedure: (§1) Furthermore, the expression of caspases, the key mediators of programmed cells death, was examined in HeLa cells after the treatment with compound 6.
(§2) Cells were plated into 12-well plated (2 × 10^4 cells/well) and after 24 h were treated with 6 (50-25-10-5 µM) for 48 h to assess caspase 3 and caspase 9 levels. Cells were collected, washed with PBS, then incubated in fixing buffer (containing 4% formaldehyde, 0.1% NaN3, and 2% FBS in PBS) for 20 min and then permeabilized with fix perm solution (fixing buffer containing 0.1% Triton X) for 30 min. Afterward, anti-caspase 3 or anti-caspase 9 antibodies were added for a further 30 min. Cells were then incubated with anti-rabbit Texas Red antibody as a secondary antibody for 1 h at 4 °C. Cell fluorescence was evaluated using a fluorescence-activated cell sorter (FACSscan; Becton Dickinson, Milan, Italy) and analyzed with the Cell Quest software (4.0, Becton Dickinson, North Ryde, NSW, Australia). Data were shown as a percentage of positive cells.
(§3) Figure 5 (a) Caspase 3 and (b) caspase 9 expressions were detected by flow cytometric analysis. HeLa cells were treated with 6 (5-10-25 μM) for 48 h. Results are expressed as mean ± S.E.M. from at least three independent experiments each performed in duplicate. Data were analyzed by Student’s t-test. *** p < 0.0001 vs. non-treated.

[1] = system: human cervical adenocarcinoma cell line (HeLa); experiment: MTT cell viability assay, HeLa; format: cell-based; settings: 48 h, 5–50 µM; for IC50: Homo sapiens, HeLa, read-out: HeLa Cell Line IC50 ± SD
Procedure: (§4) Firstly, the antiproliferative activity of lead compound 1, 2 and 5–9 against selected human cell lines was assessed. No effect on human PHA (Phytohaemagglutinin)-stimulated proliferating non-tumor human cell line (PMBC) has been detected for compound 1 tested at different concentrations (10–50 μM) after 72 h of exposure. In more detail, all the synthesized compounds have been tested on human melanoma cancer A375 and HeLa cancer cell lines, which are known to overexpress BAG3 protein, by an MTT cell viability assay, using different concentrations (5–50 μM). The IC50 values have been calculated after 48 h of treatment with test compounds (Table 2).
(§5) Cell lines of human cervical carcinoma (HeLa) and human malignant melanoma (A375) were cultured in Dulbecco’s modified Eagle’s medium containing 10% fetal bovine serum, supplemented with 100 U/mL each of penicillin and streptomycin, and 2 mM/L glutamine and were grown at 37 °C under 5% CO2 air humidified atmosphere.
(§6) Cell viability was evaluated using a colorimetric assay based on MTT ((3-(4,5-dimethylthiazol-2-yl)-2,5-diphenyltetrazolium bromide)) assay. Cells were grown in 96-well tissue culture plates (3,5 × 10^3 cells/well) and after 24 h, were treated with different concentrations of 1, 2 and 5–9 (50, 25, 10, and 5 µM) and incubation was performed for 48 h at 37 °C in an atmosphere containing 5% CO2. At the end of treatment, the plates were centrifuged at 1200 rpm for 5 min, the medium was removed and 100 μL of MTT (1 mg/mL) were added to each well, and cells were incubated at 37 °C for the time necessary to allow the formation of purple formazan precipitate. The solution was then removed from each well, and the formazan crystals within the cells were dissolved with 100 μL of DMSO [31]. The optical density (OD) of each well was measured with a microplate spectrophotometer (Multiskan Spectrum Thermo Electron Corporation reader) (Thermo Fisher Scientific, Rome, Italy) equipped with a 620-nm filter. Cell mortality was calculated as: % mortality = 100 − [100 × (OD treated/OD control)] [32].

A375 cells = experiment: Apoptosis and cell cycle analysis by PI staining and flow cytometry, A375; format: cell-based, human; settings: 5-10-25 μM, 48 h
Procedure: (§7) The cells were incubated for 48 h with 1 and 6 at concentrations 5-10-25μM.
(§8) The effect of compound 1 and 6 on cell death was analyzed by propidium iodide (PI) (Merck, Darmstadt, Germany) incorporation in permeabilized cells and flow cytometry. Briefly, cells were plated at a density of 2 × 10^4 cells/well in a 24-well plate. After 24 h, 1 and 6 (25-10-5 μM) were added for 48 h. Cells were washed twice with PBS and incubated in 500μL of a solution containing 0.1% Triton X-100, 0.1% sodium citrate, and […] propidium iodide (PI), at 4 °C for 30 min in the dark. The PI-stained cells were subsequently analyzed by flow cytometry by FACSCalibur flow cytometer (Becton Dickinson, Milan, Italy) using CellQuest software (4.0, Becton Dickinson, North Ryde, NSW, Australia). Results are expressed as the percentage of cells in the hypodiploid region. Cellular debris were excluded from the analysis by raising the forward scatter threshold and the DNA content of the nuclei was registered on a logarithmic scale. Cell cycle profiles were evaluated by DNA staining with a PI solution using a flow cytometer. Results from 5000 events per sample were collected, and the relative percentage of the cells in G0/G1, S, G2/M, and sub-G0/G1 phases of the cell cycle was determined using the ModFit LT version 3.3 analysis software (BD Biosciences, North Ryde, NSW, Australia).
(§9) Figure 3 Cell cycle analysis: (a) DNA content and (b) hypodiploid nuclei, with propidium iodide staining, were evaluated by flow cytometric assay. A375 cells were treated respectively with 1 or 6 (both 5-10-25 μM) for 48 h. Results are expressed as mean ± S.E.M. of three independent experiments, each performed in duplicate. Data were analyzed by Student’s t-test. * p < 0.05 and ** p < 0.005 vs. non-treated.

[2] = target: Human recombinant BAG3 (rBAG3) protein full length (Homo sapiens, UniProt O95817); experiment: SPR assay on recombinant full-length BAG3; settings: for rBAG3 KD ± SD: SPR, full-length protein, 25 °C, n.b. = no binding
Procedure: (§10) A surface plasmon resonance (SPR) assay [18], using a recombinant BAG3 protein, was performed and, to explore the potential selectivity of our potential binders, the affinity for BAG4—the most closely BAG3 related protein—was also evaluated. Moreover, the binding affinity towards the BAG3BD domain was also assessed.
(§11) The SPR analysis were performed on Biacore 3000^TM equipped with a research-grade CM5 sensor chip (GE Healthcare^TM, Milan, Italy). Human recombinant BAG3 (rBAG3) protein was purchased from MyBioSource© (San Diego, CA, USA), BAG3 domain (rBAG3BD) was purchased from ARETA International S.r.l. […] The proteins were coupled to the surface of a CM5 sensor chip using standard amine-coupling protocols, according to the manufacturer’s instructions. Three separates recombinant rBAG proteins surfaces and one unmodified reference surface were prepared for simultaneous analyses. rBAG proteins (BAG3 and BAG4) and rBAG3BD (100 µg mL^−1 in 10 mM CH3COONa, pH 4.5) were immobilized on the sensor chip surface at a flow rate of 5 µL min^−1 to obtain densities of 5–9 kRU. […] For each molecule, a six-point concentration series was conducted in triplicate (0-0.25-1-10-20-100 µM). SPR (Surface Plasmon Resonance) experiments were performed at 25 °C, using a flow rate of 10 µL min^−1, with 60-s monitoring of association and 300-s monitoring of dissociation. Sensorgram elaborations were performed using the BIAevaluation software (GE Healthcare^TM, Milan, Italy). provided by GE Healthcare^TM. Simple interactions were suitably fitted to a single-site bimolecular interaction model (A + B = AB), yielding a single KD.

[3] = target: T1, human recombinant BAG4 protein (Homo sapiens, UniProt O95429); experiment: SPR assay on BAG4 (selectivity); settings: 25 °C, n.b. = no binding
T1 sequence (O95429 1-457): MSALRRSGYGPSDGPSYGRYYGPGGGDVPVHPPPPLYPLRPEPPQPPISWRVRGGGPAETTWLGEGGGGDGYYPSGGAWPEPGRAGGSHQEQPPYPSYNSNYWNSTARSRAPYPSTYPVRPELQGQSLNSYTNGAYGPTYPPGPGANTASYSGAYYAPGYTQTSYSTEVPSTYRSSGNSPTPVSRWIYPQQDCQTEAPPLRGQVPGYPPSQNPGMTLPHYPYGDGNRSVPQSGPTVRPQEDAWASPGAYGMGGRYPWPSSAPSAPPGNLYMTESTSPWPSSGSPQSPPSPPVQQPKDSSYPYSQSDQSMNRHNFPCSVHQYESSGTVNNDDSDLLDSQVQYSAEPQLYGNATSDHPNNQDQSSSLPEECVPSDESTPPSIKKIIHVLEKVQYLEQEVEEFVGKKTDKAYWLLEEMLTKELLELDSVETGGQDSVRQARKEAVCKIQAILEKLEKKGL
Procedure: as §10, §11

[4] = system: human melanoma cell line (A375); experiment: MTT cell viability assay, A375; format: cell-based; settings: 5–50 µM; for A375 Cell Line IC50 ± SD: 48 h; for IC50: Homo sapiens, A-375, 48 h, read-out: A375 Cell Line IC50 ± SD
Procedure: as §4, §5, §6

HeLa cells = experiment: Apoptosis and cell cycle analysis by PI staining and flow cytometry, HeLa; format: cell-based, human; settings: 5-10-25 μM, 48 h
Procedure: as §7, §8
as §9, with “4” for “3”, “HeLa” for “A375”, “treated” for “treated respectively”, “with” for “with 1 or”, “(5-10-25” for “(both 5-10-25”, “experiments” for “experiments,”

BAG3 = BAG3 expression by Western blotting in HeLa cells; format: cell-based, human; settings: 5-10-25 μM, 48 h
Procedure: Figure 6 HeLa cells were treated with 6 (5-10-25 μM) for 48 h. BAG3 expression was detected by Western blotting. Tubulin protein expression was used as a loading control. Results are expressed as mean ± S.E.M. from at least three independent experiments each performed in duplicate. Data were analyzed by Student’s t test vs. non-treated.

caspase 3 = experiment: Caspase 3 level by flow cytometry in HeLa cells; format: cell-based, human; settings: 5-10-25 μM, 48 h
Procedure: as §1, §2, §3

BAG3 domain (rBAG3BD) = target: T2, BAG3 domain (rBAG3BD) (Homo sapiens, UniProt O95817); experiment: SPR assay on isolated BAG3 BAG domain; settings: for rBAG3BD KD ± SD: SPR, isolated BAG domain, 25 °C, n.b. = no binding
T2 sequence (O95817 421-498 limits assumed): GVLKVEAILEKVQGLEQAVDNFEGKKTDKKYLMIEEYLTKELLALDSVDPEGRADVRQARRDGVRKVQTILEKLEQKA
Procedure: as §10, §11

A549 = system: A549; set-up: method as in PMID 29926854; settings: A549 cells; read-out: antiproliferative activity IC50, A549; cited from earlier work
[5] = system: human PHA (Phytohaemagglutinin)-stimulated proliferating non-tumor human cell line (PMBC); set-up: method as in PMID 29926854; settings: 10–50 μM, 72 h of exposure; cited from earlier work
PC3 = system: PC3; set-up: method as in PMID 29926854; settings: PC3 cells; read-out: antiproliferative activity IC50, PC3; cited from earlier work

Human recombinant BAG3 (rBAG3) protein full length, sequence (O95817 whole entry): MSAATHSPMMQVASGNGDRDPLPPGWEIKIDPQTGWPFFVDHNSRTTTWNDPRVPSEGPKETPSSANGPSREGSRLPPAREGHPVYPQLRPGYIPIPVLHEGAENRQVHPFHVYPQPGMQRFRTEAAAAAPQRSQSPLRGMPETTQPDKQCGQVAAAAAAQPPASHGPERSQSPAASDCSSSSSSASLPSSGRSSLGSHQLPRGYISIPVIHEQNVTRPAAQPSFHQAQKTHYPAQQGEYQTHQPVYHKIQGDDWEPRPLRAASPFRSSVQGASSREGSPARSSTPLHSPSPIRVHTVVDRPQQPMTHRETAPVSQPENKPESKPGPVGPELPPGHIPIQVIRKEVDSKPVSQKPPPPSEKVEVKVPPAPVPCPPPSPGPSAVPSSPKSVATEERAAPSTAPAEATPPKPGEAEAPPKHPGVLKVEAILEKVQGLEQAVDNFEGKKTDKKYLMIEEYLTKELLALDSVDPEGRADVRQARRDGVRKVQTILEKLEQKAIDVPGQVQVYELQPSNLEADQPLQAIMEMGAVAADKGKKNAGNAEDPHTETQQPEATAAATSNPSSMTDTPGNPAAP

Row | Compound | HeLa Cell Line IC50 ± SD [1] | IC50 [1] [µM] | Kd [2] [µM] | rBAG4 KD ± SD [3] | A375 Cell Line IC50 ± SD [4] | IC50 [4] [µM] | Kd (BAG3 domain (rBAG3BD)) [µM] | further results
1 | CCOC(=O)CN1C(=O)S/C(=C\c2ccc(N(CCO)CCO)cc2)C1=O [Compound 6, (Z)-ethyl 2-(5-(4-(bis(2-hydroxyethyl)amino)benzylidene)-2,4-dioxothiazolidin-3-yl) acetate] | micromolar range | 18.7 ± 0.9 | 0.0063 ± 0.0003 | n.b. | micromolar range | 19.4 ± 1.2 | 0.0276 ± 0.0019 | caspase 9 levels (caspase 9): significant and dose-dependent activation; apoptotic response (hypodiploid nuclei), A375 (A375 cells): significant increase of the apoptotic response in a dose-dependent manner; cell cycle distribution (G2 phase), A375 (A375 cells): dose-dependent accumulation in the G2 phase; apoptotic response (hypodiploid nuclei), HeLa (HeLa cells): significant increase of the apoptotic response in a dose-dependent manner; cell cycle distribution (G2 phase), HeLa (HeLa cells): dose-dependent accumulation in the G2 phase; BAG3 expression (BAG3): expression decrease of BAG3; caspase 3 levels (caspase 3): significant and dose-dependent activation
2 | COC(=O)CN1C(=O)S/C(=C\c2cc(O)cc(O)c2)C1=O [Compound 4, (Z)-methyl 2-(5-(3,5-dihydroxybenzylidene)-2,4-dioxothiazolidin-3-yl) acetate] |  |  |  |  |  |  |  | rBAG3 KD ± SD [2]: n.b.
3 | CCOC(=O)CN1C(=O)S/C(=C\c2ccc(-c3ccc(C#N)cc3)cn2)C1=O [Compound 8, (Z)-ethyl 2-(5-((5-(4-cyanophenyl)pyridin-2-yl)methylene)-2,4-dioxothiazolidin-3-yl) acetate] | micromolar range | 25.9 ± 0.8 | 0.144 ± 0.0015 | n.b. | micromolar range | 23.2 ± 1 |  | rBAG3BD KD ± SD (BAG3 domain (rBAG3BD)): n.b.
4 | O=C(CN1C(=O)S/C(=C\c2cc(O)cc(O)c2)C1=O)N1CCOCC1 [Compound 5, (Z)-5-(3,5-dihydroxybenzylidene)-3-(2-morpholino-2-oxoethyl) thiazolidine-2,4-dione] | micromolar range | 30 ± 1.3 |  | n.b. | micromolar range | 25.5 ± 1.1 |  | 
5 | CCOC(=O)CN1C(=O)S/C(=C\c2cc(O)cc(O)c2)C1=O [Compound 3, (Z)-ethyl 2-(5-(3,5-dihydroxybenzylidene)-2,4-dioxothiazolidin-3-yl) acetate] |  |  |  |  |  |  |  | rBAG3 KD ± SD [2]: n.b.
6 | COC(=O)CN1C(=O)S/C(=C\c2ccc(N(CCO)CCO)cc2)C1=O [Compound 7, (Z)-methyl 2-(5-(4-(bis(2-hydroxyethyl)amino)benzylidene)-2,4-dioxothiazolidin-3-yl) acetate] |  | 49.4 ± 1.4 | 0.0531 ± 0.0091 | n.b. |  | > 50 | 0.0457 ± 0.0017 | 

Second part, led by results:

Row | HeLa Cell Line IC50 ± SD [1] | IC50 [1] [µM] | Kd [2] [µM] | rBAG4 KD ± SD [3] | A375 Cell Line IC50 ± SD [4] | IC50 [4] [µM] | Kd (BAG3 domain (rBAG3BD)) [µM] | Compound | further results
7 |  | 27.3 ± 1.2 | 0.115 ± 0.0014 | n.b. |  | > 50 |  | COC(=O)CN1C(=O)S/C(=C\c2ccc(O)c(O)c2)C1=O [Compound 2, (Z)-methyl 2-(5-(3,4-dihydroxybenzylidene)-2,4-dioxothiazolidin-3-yl) acetate] | rBAG3BD KD ± SD (BAG3 domain (rBAG3BD)): n.b.
8 | micromolar range | 31.3 ± 1 | 0.0247 ± 0.0018 | n.b. | micromolar range | 28.4 ± 0.9 | 0.0224 ± 0.0007 | COC(=O)CN1C(=O)S/C(=C\c2ccc(-c3ccc(C#N)cc3)cn2)C1=O [Compound 9, (Z)-methyl 2-(5-((5-(4-cyanophenyl)pyridin-2-yl)methylene)-2,4-dioxothiazolidin-3-yl) acetate] | 
9 |  | > 50 | 0.0111 ± 0.0039 | n.b. ^a |  | 15.1 ± 0.9 | 0.0064 ± 0.0022 | CCOC(=O)CN1C(=O)S/C(=C\c2ccc(O)c(O)c2)C1=O [Compound 1, reference compound] | IC50 (A549): 32.3 ± 0.9 µM; effect on PHA-stimulated proliferating non-tumor cells [5]: No effect; apoptotic response (hypodiploid nuclei), A375 (A375 cells): dose-dependent increase in hypodiploid nuclei; cell cycle distribution (G2 phase), A375 (A375 cells): accumulation in the G2 phase; cell cycle distribution (G2 phase), HeLa (HeLa cells): no evident effect; IC50 (PC3): 48.1 ± 1.5 µM

Reference: paper PMC8839660, “Structural Refinement of 2,4-Thiazolidinedione Derivatives as New Anticancer Agents Able to Modulate the BAG3 Protein” (Molecules, 2022)
